Biological target: recombinant PBP4 (Bacillus subtilis, UniProt P40750)
Test: Gel electrophoresis BOCILLIN FL labeling of PBP4
Format: binding
Protocol: A second, yet lower resolution, approach was used to verify the impact of 9314848 on PBP4 substrate binding in which the protein was preincubated with compound or control antibiotics then labeled with the BOCILLIN FL and resulting fluorescent labeled protein was visualized following gel electrophoresis.
The ability of putative PBP4 inhibitors to impact the active site of recombinant PBP4 was assessed using two previously established BOCILLIN-FL Penicillin (Penicillin V conjugated to BODIPY fluorescent dye) binding assays. First, fluorescence polarization assays were performed as previously described, but with minor modifications. Briefly, the indicated amount of the putative PBP4 inhibitor or control antibiotic was incubated with 1 µM recombinant B. subtilis PBP4 or S. aureus PBP2a in potassium phosphate buffer (40 mM K2HPO4 and 10 mM KH2PO4) for 1 h in black 96-well microtiter plates (Corning Life Sciences, Corning, NY, USA). Following incubation, 1 µM (final concentration) BOCILLIN FL penicillin was added, and the mixture was incubated for 30 min. BOCILLIN FL fluorescence polarization was measured at (495 nm excitation and 545 nm emission) in a SpectraMax M5 multimode plate reader (Molecular Devices, San Jose, CA, USA). All assays were repeated at least 8 times, averaged, and values falling outside of 2 standard deviations were considered outliers. The resulting data were plotted as percentage BOCILLIN FL binding inhibition = (T/U) × 100; T = FL polarization of ((PBP4+ BOCILLIN FL) − (PBP4+ BOCILLIN FL + inhibitor compound)), U = FL polarization of ((PBP4 + BOCILLIN FL) − (BOCILLIN FL)). Second, gel electrophoresis and fluorescence detection was used to measure BOCILLIN FL labeling of PBP4 treated with the known PBP4 inhibitor cefoxitin (positive control), kanamycin (negative control) or 9314848 (test compound), as previously described but with minor modifications. Briefly, 1 µM of recombinant PBP4 was mixed with 0, 50, 500, 2000, or 5000 µM 9314848 or control antibiotic in 50 mM phosphate buffer (pH 7.4) and incubated at 37 °C for 30 min. Next 40 μM of BOCILLIN FL was added to the reaction mixture and incubated for an additional 30 min at 37 °C. Reactions were stopped by adding 5× SDS-PAGE gel loading dye, heated at 100 °C for 3 min and separated by electrophoresis in 12% SDS-PAGE (2 h, 120 Volts). BOCILLIN FL labeled PBP4 was imaged at λ = 365 nm using a BioRad Gel Doc EZ Imaging system and the gel was then subsequently stained with Bio-safe Coomassie Brilliant Blue stain (BioRad, Hercules, CA, USA) to measure the amount of protein present in each reaction condition and analyzed using NIH-ImageJ software. The percent BOCILLIN FL binding was calculated by first normalizing the protein present in each reaction condition to that of untreated control and subsequently applying each reaction’s protein normalization factor to each reaction’s fluorescent signal. The percentage BOCILLIN FL binding inhibition was then calculated as the normalized band intensity of antibiotic/compound treated sample as compared to the control sample (PBP4 + BOCILLIN FL in the absence of compound).

Chain of recombinant PBP4 (P40750 22-624): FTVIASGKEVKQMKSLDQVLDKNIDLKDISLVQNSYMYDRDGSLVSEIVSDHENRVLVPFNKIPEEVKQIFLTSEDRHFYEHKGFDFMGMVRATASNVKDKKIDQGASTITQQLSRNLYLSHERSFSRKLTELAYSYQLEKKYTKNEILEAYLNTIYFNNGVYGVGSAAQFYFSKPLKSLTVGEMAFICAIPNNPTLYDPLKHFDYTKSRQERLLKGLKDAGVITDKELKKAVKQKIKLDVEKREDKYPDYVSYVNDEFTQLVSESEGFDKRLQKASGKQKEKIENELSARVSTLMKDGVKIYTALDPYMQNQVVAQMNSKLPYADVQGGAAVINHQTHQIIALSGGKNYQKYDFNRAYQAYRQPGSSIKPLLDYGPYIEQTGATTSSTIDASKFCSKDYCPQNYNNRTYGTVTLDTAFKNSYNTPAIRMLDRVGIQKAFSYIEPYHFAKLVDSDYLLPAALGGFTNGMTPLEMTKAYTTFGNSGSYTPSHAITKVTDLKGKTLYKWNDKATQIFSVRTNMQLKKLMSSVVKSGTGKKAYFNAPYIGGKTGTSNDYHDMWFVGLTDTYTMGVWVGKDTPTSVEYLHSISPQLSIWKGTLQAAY

With `CC1CCN(C(=O)c2cccc(NC(=O)Nc3ccc(Cl)cc3)c2)CC1` [Compound 9314848] the inhibition at 50 µM (50 µM compound, read-out: PBP4 BOCILLIN FL binding inhibition (gel-based)) was 37.5 ± 8.2%, the inhibition at 5000 µM (5000 µM compound, read-out: PBP4 BOCILLIN FL binding inhibition (gel-based)) was 72.1 ± 13.1% and the “PBP4 BOCILLIN FL binding inhibition (gel-based) at low concentration” value (concentrations below 50 µM) was “did not reproducibly demonstrate BOCILLIN FL binding inhibition”.
